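Assay format: 96-well plates, 48-hour exposure. GI50 = concentration required for 50% inhibition of growth.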 Active and inactive are the calls of the source. Cut-off read from the data, not from the text of the source: active = GI50 up to about 1.1 µM and inactive = higher.
Experiments:
Test in all cases: growth of human tumour cells (NCI), 48 h
786-0 = test system: 786-0
A498 = test system: A498
A549 = test system: A549
ACHN = test system: ACHN
BT-549 = test system: BT-549
CCRF-CEM = test system: CCRF-CEM
COLO 205 = test system: COLO 205
DU-145 = test system: DU-145
EKVX = test system: EKVX
HCT-116 = test system: HCT-116
HCT-15 = test system: HCT-15
HL-60 = test system: HL-60
HOP-62 = test system: HOP-62
HOP-92 = test system: HOP-92
HT-29 = test system: HT-29
Hs-578T = test system: Hs-578T
IGROV-1 = test system: IGROV-1
K562 = test system: K562
KM12 = test system: KM12
LOX IMVI = test system: LOX IMVI
M14 = test system: M14
MCF7 = test system: MCF7
MDA-MB-231 = test system: MDA-MB-231
MDA-MB-435 = test system: MDA-MB-435
MDA-N = test system: MDA-N
MOLT-4 = test system: MOLT-4
Malme-3M = test system: Malme-3M
NCI-H226 = test system: NCI-H226
NCI-H23 = test system: NCI-H23
NCI-H460 = test system: NCI-H460
NCI/ADR-RES = test system: NCI/ADR-RES
OVCAR-3 = test system: OVCAR-3
OVCAR-4 = test system: OVCAR-4
OVCAR-5 = test system: OVCAR-5
PC-3 = test system: PC-3
RPMI-8226 = test system: RPMI-8226
RXF 393 = test system: RXF 393
SF-268 = test system: SF-268
SF-539 = test system: SF-539
SK-MEL-28 = test system: SK-MEL-28
SK-MEL-2 = test system: SK-MEL-2
SK-MEL-5 = test system: SK-MEL-5
SK-OV-3 = test system: SK-OV-3
SN12C = test system: SN12C
SNB-19 = test system: SNB-19
SR = test system: SR
SW-620 = test system: SW-620
T47D = test system: T47D
TK-10 = test system: TK-10
U-251 = test system: U-251
UACC-257 = test system: UACC-257
UACC-62 = test system: UACC-62
UO-31 = test system: UO-31
NCI-H522 = test system: NCI-H522
OVCAR-8 = test system: OVCAR-8
SF-295 = test system: SF-295

For `Nc1nc(Nc2ccccc2)sc1C(=O)c1c[nH]c2ccccc12`, which GI50 (786-0) is on record?
The GI50 was 5.52 µM (inactive).

And the GI50 (A498)?
The GI50 was 11.4 µM (inactive).

And the GI50 (A549)?
Its GI50 is 7.52 µM (inactive).

What about the GI50 (ACHN) of the same molecule?
Its GI50 is 15.6 µM (inactive).

What about the GI50 (BT-549) of the same molecule?
The GI50 was 14.8 µM (inactive).

What about the GI50 (CCRF-CEM) of the same molecule?
The GI50 was 3.2 µM (inactive).

What about the GI50 (COLO 205) of the same molecule?
The GI50 was 4.2 µM (inactive).

And the GI50 (DU-145)?
The GI50 was 9.89 µM (inactive).

What about the GI50 (EKVX) of the same molecule?
Its GI50 is 5.94 µM (inactive).

And the GI50 (HCT-116)?
The GI50 was 6.97 µM (inactive).

What about the GI50 (HCT-15) of the same molecule?
The GI50 was 3.95 µM.

And the GI50 (HL-60)?
Its GI50 is 19.1 µM (inactive).

And the GI50 (HOP-62)?
The GI50 was 16.7 µM (inactive).

And the GI50 (HOP-92)?
The GI50 was 16.4 µM (inactive).

And the GI50 (HT-29)?
Its GI50 is 3.73 µM (inactive).

And the GI50 (Hs-578T)?
Its GI50 is 16.3 µM (inactive).

What about the GI50 (IGROV-1) of the same molecule?
The GI50 was 12.9 µM (inactive).

What about the GI50 (K562) of the same molecule?
Its GI50 is 4.06 µM (inactive).

What about the GI50 (KM12) of the same molecule?
Its GI50 is 10.2 µM (inactive).

What about the GI50 (LOX IMVI) of the same molecule?
The GI50 was 13.5 µM (inactive).

And the GI50 (M14)?
The GI50 was 8 µM (inactive).

What about the GI50 (MCF7) of the same molecule?
The GI50 was 11.8 µM (inactive).

And the GI50 (MDA-MB-231)?
The GI50 was 17.2 µM (inactive).

What about the GI50 (MDA-MB-435) of the same molecule?
The GI50 was 11.2 µM (inactive).

What about the GI50 (MDA-N) of the same molecule?
Its GI50 is 12.4 µM (inactive).

What about the GI50 (MOLT-4) of the same molecule?
The GI50 was 2.08 µM (inactive).

What about the GI50 (Malme-3M) of the same molecule?
The GI50 was 19.4 µM (inactive).

What about the GI50 (NCI-H226) of the same molecule?
Its GI50 is 10.6 µM (inactive).

What about the GI50 (NCI-H23) of the same molecule?
The GI50 was 17.5 µM (inactive).

And the GI50 (NCI-H460)?
The GI50 was 4.23 µM (inactive).

And the GI50 (NCI/ADR-RES)?
Its GI50 is 12.6 µM (inactive).

What about the GI50 (OVCAR-3) of the same molecule?
The GI50 was 13.4 µM (inactive).

And the GI50 (OVCAR-4)?
The GI50 was 10.3 µM (inactive).

What about the GI50 (OVCAR-5) of the same molecule?
Its GI50 is 11.9 µM (inactive).

What about the GI50 (PC-3) of the same molecule?
Its GI50 is 11.6 µM (inactive).

What about the GI50 (RPMI-8226) of the same molecule?
Its GI50 is 10.7 µM (inactive).

And the GI50 (RXF 393)?
Its GI50 is 8.49 µM (inactive).

What about the GI50 (SF-268) of the same molecule?
The GI50 was 15.1 µM (inactive).

And the GI50 (SF-539)?
Its GI50 is 12.4 µM (inactive).

And the GI50 (SK-MEL-28)?
The GI50 was 11.7 µM (inactive).

And the GI50 (SK-MEL-2)?
The GI50 was 15.1 µM (inactive).

And the GI50 (SK-MEL-5)?
Its GI50 is 11.8 µM (inactive).

And the GI50 (SK-OV-3)?
Its GI50 is 16.6 µM (inactive).

What about the GI50 (SN12C) of the same molecule?
The GI50 was 15.7 µM (inactive).

And the GI50 (SNB-19)?
The GI50 was 3.28 µM (inactive).

What about the GI50 (SR) of the same molecule?
The GI50 was 1.45 µM (inactive).

What about the GI50 (SW-620) of the same molecule?
Its GI50 is 11.1 µM (inactive).

What about the GI50 (T47D) of the same molecule?
The GI50 was 6.49 µM (inactive).

What about the GI50 (TK-10) of the same molecule?
Its GI50 is 3.09 µM (inactive).

What about the GI50 (U-251) of the same molecule?
Its GI50 is 10.7 µM (inactive).

What about the GI50 (UACC-257) of the same molecule?
The GI50 was 10.8 µM (inactive).

What about the GI50 (UACC-62) of the same molecule?
The GI50 was 14.8 µM (inactive).

And the GI50 (UO-31)?
Its GI50 is 2.56 µM (inactive).

How did the GI50 (786-0) turn out when `CC(=O)OCc1cc(CCC(=O)NCCNc2c3ccccc3nc3ccccc23)cc(COC(C)=O)c1O[Si](C)(C)C(C)(C)C` was run?
Its GI50 is 8.81 µM (inactive).

And the GI50 (A498)?
Its GI50 is 1.91 µM (inactive).

And the GI50 (A549)?
The GI50 was 7.13 µM (inactive).

And the GI50 (ACHN)?
The GI50 was 13.8 µM (inactive).

What about the GI50 (BT-549) of the same molecule?
The GI50 was 13.7 µM (inactive).

And the GI50 (CCRF-CEM)?
The GI50 was 3.7 µM (inactive).

And the GI50 (COLO 205)?
The GI50 was 4.35 µM (inactive).

What about the GI50 (DU-145) of the same molecule?
The GI50 was 12.1 µM (inactive).

What about the GI50 (EKVX) of the same molecule?
The GI50 was 13.4 µM (inactive).

What about the GI50 (HCT-116) of the same molecule?
The GI50 was 4.61 µM (inactive).

What about the GI50 (HCT-15) of the same molecule?
Its GI50 is 14.4 µM.

And the GI50 (HL-60)?
Its GI50 is 2.87 µM (inactive).

And the GI50 (HOP-62)?
The GI50 was 13.6 µM (inactive).

And the GI50 (HOP-92)?
Its GI50 is 4.89 µM (inactive).

What about the GI50 (HT-29) of the same molecule?
The GI50 was 2.63 µM (inactive).

What about the GI50 (Hs-578T) of the same molecule?
The GI50 was 3.3 µM (inactive).

What about the GI50 (IGROV-1) of the same molecule?
Its GI50 is 10.4 µM (inactive).

What about the GI50 (K562) of the same molecule?
Its GI50 is 2.65 µM (inactive).

What about the GI50 (KM12) of the same molecule?
Its GI50 is 2.95 µM (inactive).

What about the GI50 (LOX IMVI) of the same molecule?
Its GI50 is 1.95 µM (inactive).

And the GI50 (M14)?
The GI50 was 5.26 µM (inactive).

What about the GI50 (MCF7) of the same molecule?
The GI50 was 2.2 µM (inactive).

And the GI50 (MDA-MB-231)?
Its GI50 is 3.37 µM (inactive).

What about the GI50 (MDA-MB-435) of the same molecule?
Its GI50 is 2.97 µM (inactive).

What about the GI50 (MDA-N) of the same molecule?
The GI50 was 5.85 µM (inactive).

And the GI50 (MOLT-4)?
Its GI50 is 2.4 µM (inactive).

What about the GI50 (Malme-3M) of the same molecule?
Its GI50 is 6.25 µM (inactive).

What about the GI50 (NCI-H226) of the same molecule?
The GI50 was 2.19 µM (inactive).

What about the GI50 (NCI-H23) of the same molecule?
Its GI50 is 14.5 µM (inactive).

What about the GI50 (NCI-H460) of the same molecule?
Its GI50 is 3.72 µM (inactive).

What about the GI50 (NCI-H522) of the same molecule?
The GI50 was 5.5 µM (inactive).

What about the GI50 (NCI/ADR-RES) of the same molecule?
Its GI50 is 20.7 µM (inactive).

What about the GI50 (OVCAR-3) of the same molecule?
The GI50 was 2 µM (inactive).

And the GI50 (OVCAR-4)?
The GI50 was 6.19 µM (inactive).

What about the GI50 (OVCAR-5) of the same molecule?
The GI50 was 13.4 µM (inactive).

And the GI50 (OVCAR-8)?
The GI50 was 13.8 µM (inactive).

And the GI50 (PC-3)?
Its GI50 is 10.5 µM (inactive).

And the GI50 (RPMI-8226)?
The GI50 was 2.57 µM (inactive).

And the GI50 (RXF 393)?
The GI50 was 3.48 µM (inactive).

And the GI50 (SF-295)?
Its GI50 is 2.67 µM (inactive).

What about the GI50 (SF-539) of the same molecule?
The GI50 was 2.59 µM (inactive).

And the GI50 (SK-MEL-28)?
The GI50 was 4.73 µM (inactive).

What about the GI50 (SK-MEL-2) of the same molecule?
The GI50 was 8.95 µM (inactive).

What about the GI50 (SK-OV-3) of the same molecule?
Its GI50 is 13.9 µM (inactive).

And the GI50 (SN12C)?
Its GI50 is 1.83 µM (inactive).

And the GI50 (SNB-19)?
The GI50 was 11.1 µM (inactive).

What about the GI50 (SR) of the same molecule?
Its GI50 is 2.21 µM (inactive).

What about the GI50 (SW-620) of the same molecule?
The GI50 was 9.44 µM (inactive).

What about the GI50 (T47D) of the same molecule?
Its GI50 is 1.97 µM (inactive).

And the GI50 (TK-10)?
The GI50 was 7.46 µM (inactive).

What about the GI50 (U-251) of the same molecule?
Its GI50 is 4.88 µM (inactive).

What about the GI50 (UACC-257) of the same molecule?
Its GI50 is 4.36 µM (inactive).

What about the GI50 (UACC-62) of the same molecule?
Its GI50 is 6.9 µM (inactive).

What about the GI50 (UO-31) of the same molecule?
Its GI50 is 12.9 µM (inactive).

— ChEMBL document CHEMBL1201862, “PubChem BioAssay data set” (2004)
